{"source": "patent US5236948A", "about": "“Sulphonamide derivatives” (Imperial Chemical Industries PLC, priority 1991, dated 1993)", "key": {"5-LO [1]": {"target": "T1, 5-LO (Homo sapiens, UniProt P09917)", "T1 construct": "incubating a test compound with heparinised human blood; endogenous in cells; host or cells: blood cells in heparinised human whole blood", "T1 sequence (P09917 1-674)": "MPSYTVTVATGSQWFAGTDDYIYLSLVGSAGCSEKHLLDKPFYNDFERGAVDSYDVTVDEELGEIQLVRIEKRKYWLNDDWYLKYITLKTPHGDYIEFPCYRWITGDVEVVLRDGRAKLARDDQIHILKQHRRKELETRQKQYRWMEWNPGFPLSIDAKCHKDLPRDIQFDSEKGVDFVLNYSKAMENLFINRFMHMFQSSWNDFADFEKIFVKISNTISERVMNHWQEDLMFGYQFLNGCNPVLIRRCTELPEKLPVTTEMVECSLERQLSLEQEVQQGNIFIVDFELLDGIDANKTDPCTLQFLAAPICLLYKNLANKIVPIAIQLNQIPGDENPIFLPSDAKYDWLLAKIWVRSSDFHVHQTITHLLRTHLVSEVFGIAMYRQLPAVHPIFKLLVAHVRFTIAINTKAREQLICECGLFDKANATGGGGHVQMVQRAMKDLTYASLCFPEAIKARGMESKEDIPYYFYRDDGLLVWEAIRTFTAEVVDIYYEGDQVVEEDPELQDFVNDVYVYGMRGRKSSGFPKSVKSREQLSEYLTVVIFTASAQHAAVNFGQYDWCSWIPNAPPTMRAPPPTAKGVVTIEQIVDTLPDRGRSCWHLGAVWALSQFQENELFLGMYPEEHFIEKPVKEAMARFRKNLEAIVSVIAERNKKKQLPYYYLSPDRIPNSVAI", "assay": "Test a) in vitro inhibition of LTB4 formation in heparinised human blood challenged with A23187 (radioimmunoassay)", "format": "cell-based", "experimental": "a) An in vitro assay system involving incubating a test compound with heparinised human blood, prior to challenge with the calcium ionophore A23187 and then indirectly measuring the inhibitory effects on 5-LO by assaying the amount of LTB4 using specific radioimmunoassays described by Carey and Forder (Prostaglandins, Leukotrienes Med., 1986, 22, 57; Prostaglandins, 1984, 28, 666; Brit. J. Pharmacol., 1985, 84, 34P) which involve the use of a protein-LTB4 conjugate produced using the procedure of Young et alia (Prostaglandins, 1983, 26(4), 605-613). The effects of a test compound on the enzyme cyclooxygenase (which is involved in the alternative metabolic pathway for arachidonic acid and gives rise to prostaglandins, thromboxanes and related metabolites) may be measured at the same time using the specific radioimmunoassay for thromboxane B2 (TxB2) described by Carey and Forder (see above). This test provides an indication of the effects of a test compound against 5-LO and also cyclooxygenase in the presence of blood cells and proteins. It permits the selectivity of the inhibitory effect on 5-LO or cyclooxygenase to be assessed."}, "5-LO [2]": {"target": "T2, 5-LO (Rattus norvegicus, UniProt P12527)", "T2 construct": "an air pouch generated within the subcutaneous tissue of the back of male rats; endogenous in cells; host or cells: cells of the zymosan-inflamed air pouch of live male rats", "T2 sequence (P12527 1-673)": "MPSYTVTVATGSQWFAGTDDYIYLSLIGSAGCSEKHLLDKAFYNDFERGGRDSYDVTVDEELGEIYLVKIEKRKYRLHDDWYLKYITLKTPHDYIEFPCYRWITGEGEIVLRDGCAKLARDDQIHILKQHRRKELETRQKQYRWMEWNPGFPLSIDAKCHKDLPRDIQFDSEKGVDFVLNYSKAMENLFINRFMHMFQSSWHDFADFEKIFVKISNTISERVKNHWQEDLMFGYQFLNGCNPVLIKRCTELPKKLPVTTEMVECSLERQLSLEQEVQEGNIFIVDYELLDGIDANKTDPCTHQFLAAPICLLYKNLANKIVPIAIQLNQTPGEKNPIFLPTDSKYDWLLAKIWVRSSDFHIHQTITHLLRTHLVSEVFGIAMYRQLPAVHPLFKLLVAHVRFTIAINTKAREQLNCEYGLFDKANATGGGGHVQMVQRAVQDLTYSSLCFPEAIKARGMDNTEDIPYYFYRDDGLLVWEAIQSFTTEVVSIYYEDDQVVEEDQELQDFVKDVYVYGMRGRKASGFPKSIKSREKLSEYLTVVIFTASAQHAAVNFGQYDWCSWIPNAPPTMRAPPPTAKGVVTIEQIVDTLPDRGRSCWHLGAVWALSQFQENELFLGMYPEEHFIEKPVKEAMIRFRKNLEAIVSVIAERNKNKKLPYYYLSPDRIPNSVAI", "assay": "Test c) in vivo zymosan-induced LTB4 liberation in rat air pouch, oral compound", "conditions": "3 h; test c)", "experimental": "c) An in vivo system involving measuring the effects of a test compound administered orally against the liberation of LTB4 induced by zymosan within an air pouch generated within the subcutaneous tissue of the back of male rats. The rats are anaesthetised and air pouches are formed by the injection of sterile air (20 ml). A further injection of air (10 ml) is similarly given after 3 days. At 6 days after the initial air injection the test compound is administered (usually orally as the suspension produced when a solution of the test compound in dimethylsulphoxide is added to hydroxypropylmethylcellulose), followed by the intrapouch injection of zymosan (1 ml of a 1% suspension in physiological saline). After 3 hours the rats are killed, the air pouches are lavaged with physiological saline, and the specific radioimmunoassay described above is used to assay LTB4 in the washings. This test provides an indication of inhibitory effects against 5-LO in an inflammatory milieu."}}}
{"smiles": "COC1(c2cccc(Sc3ccc(NS(C)(=O)=O)c(Cl)c3)c2)CCOCC1", "note": "[N-{2-chloro-4-[3-(4-methoxytetrahydropyran-4-yl)phenylthio]phenyl)-methanesulphonamide]", "values": [{"measurement": "IC50", "setting": "5-LO [1]", "result": 1000, "unit": "nM"}, {"measurement": "ED50", "setting": "5-LO [2]", "result": 1.5, "unit": "mg/kg"}]}
{"smiles": "COC1(c2cccc(Sc3ccc(N(C)S(C)(=O)=O)cc3Cl)c2)CCOCC1", "note": "[N-{3-chloro-4-[3-(4-methoxytetrahydropyran-4-yl)phenylthio]phenyl}-N-methylmethanesulphonamide]", "values": [{"measurement": "IC50", "setting": "5-LO [1]", "result": 90, "unit": "nM"}, {"measurement": "ED50", "setting": "5-LO [2]", "result": 1, "unit": "mg/kg"}]}
